Assay results: patent publication US20210188897A1, “NEUROACTIVE STEROIDS AND COMPOSITIONS AND METHODS THEREOF” (Sparx Therapeutics, Inc., priority 2019, published 2021)
Where two headings read alike, the source gives them in different places.

Experiments:
α1β2γ2 GABAA receptors = biological target: T1, α1β2γ2 GABAA receptors (Homo sapiens, UniProt P14867+P47870); assay: GABAAR modulator FLIPR assay (membrane potential), α1β2γ2; assay type: cell-based
T1 construct: expressed in transfected cells; host or cells: 293T cells (ATCC-CRL-1573)
T1 sequence (P18507 40-475 partner, one chain of several): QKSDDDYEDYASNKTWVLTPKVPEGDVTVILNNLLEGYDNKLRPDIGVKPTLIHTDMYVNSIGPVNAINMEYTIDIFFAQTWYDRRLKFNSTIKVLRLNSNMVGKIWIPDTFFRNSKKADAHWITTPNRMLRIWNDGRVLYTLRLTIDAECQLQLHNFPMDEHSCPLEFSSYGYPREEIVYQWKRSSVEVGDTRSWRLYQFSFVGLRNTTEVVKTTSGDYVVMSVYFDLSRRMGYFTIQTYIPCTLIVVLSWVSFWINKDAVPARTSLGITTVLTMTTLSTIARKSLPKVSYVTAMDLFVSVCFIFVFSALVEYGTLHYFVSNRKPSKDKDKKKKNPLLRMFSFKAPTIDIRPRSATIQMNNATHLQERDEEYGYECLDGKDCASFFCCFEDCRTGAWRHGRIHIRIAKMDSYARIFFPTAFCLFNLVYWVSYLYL
Method: (§1) 293T cells (ATCC-CRL-1573) were applied for transient expression of α1β2γ2 or α1β2δ GABAA receptors. Cells were plated in a 96 well plate with a confluence of about 70%-80% and cultured overnight in complete medium without antibiotics. The α1β2γ2 or α1β2δ subunits were transfected via the lipofectamine method. The FLIPR assay was developed to quantitatively assess the compounds' PAM activity in α1β2γ2 and α1β2δ GABAA receptors. The FLIPR assays were conducted 48 h post-transfection. The FLIPR reagents were purchased from Molecular Devices Corporation (Membrane potential red kit, Catalog number R8126). The FMP-Red-Dye was reconstituted to 1× assay buffer. Growth medium was removed from the wells and cells were loaded with 100 μL FMP-Red-Due solution for 30 minutes in the dark at r.t. After dye loading, each plate was transferred to the FLIPR Tetra Station: the dye was excited at 510-545 nm, and the fluorescence signals were recorded at 565-625 nm. Baseline recordings were acquired for 1 minute. FMP-Red-Dye is a slow-response, potential sensitive probe and the maximal response is usually seen within 2 minutes after triggering cellular depolarization or hyperpolarization. After baseline recording, the different doses of compound solutions were firstly added on cells and the fluorescent signals were recorded for 5 minutes. Then the cells were followed by a second addition with ligand GABA solution and recorded for another 3.5 minutes. Cell responses were calculated as ΔF=Fmax−Fmin, where Fmax was the maximum response in arbitrary fluorescence units, and Fmin was the baseline arbitrary fluorescence unit value.

α1β2δ GABAA receptors = biological target: T2, α1β2δ GABAA receptors (Homo sapiens, UniProt P14867+P47870); assay: GABAAR modulator FLIPR assay (membrane potential), α1β2δ; assay type: cell-based
T2 construct: expressed in transfected cells; host or cells: 293T cells (ATCC-CRL-1573)
T2 sequence (P14867 28-456): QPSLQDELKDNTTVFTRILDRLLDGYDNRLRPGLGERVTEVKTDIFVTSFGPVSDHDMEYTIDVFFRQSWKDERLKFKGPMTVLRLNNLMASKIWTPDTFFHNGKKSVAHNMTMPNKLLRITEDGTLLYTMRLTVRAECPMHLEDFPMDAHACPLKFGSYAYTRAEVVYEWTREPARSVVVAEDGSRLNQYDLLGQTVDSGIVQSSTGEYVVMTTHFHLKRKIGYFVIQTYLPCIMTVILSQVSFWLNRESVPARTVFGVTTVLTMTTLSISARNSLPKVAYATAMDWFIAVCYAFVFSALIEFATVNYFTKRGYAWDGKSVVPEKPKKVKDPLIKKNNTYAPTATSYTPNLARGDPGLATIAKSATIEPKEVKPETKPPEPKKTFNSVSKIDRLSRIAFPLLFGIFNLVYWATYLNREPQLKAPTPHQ
T2 sequence (P47870 25-512 limits assumed): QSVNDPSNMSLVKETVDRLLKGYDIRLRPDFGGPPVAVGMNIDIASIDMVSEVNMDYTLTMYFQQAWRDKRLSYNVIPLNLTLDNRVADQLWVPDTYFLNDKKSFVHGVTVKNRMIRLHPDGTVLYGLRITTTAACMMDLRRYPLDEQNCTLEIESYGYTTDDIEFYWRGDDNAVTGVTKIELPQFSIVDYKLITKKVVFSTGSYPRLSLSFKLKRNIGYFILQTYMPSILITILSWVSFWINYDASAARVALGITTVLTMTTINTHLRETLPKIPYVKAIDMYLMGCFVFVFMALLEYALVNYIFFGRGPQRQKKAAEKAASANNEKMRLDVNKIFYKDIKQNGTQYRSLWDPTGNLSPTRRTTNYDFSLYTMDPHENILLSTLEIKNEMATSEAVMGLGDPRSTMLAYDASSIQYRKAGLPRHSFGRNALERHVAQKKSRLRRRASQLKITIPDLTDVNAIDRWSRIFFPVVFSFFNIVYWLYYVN
T2 sequence (O14764 17-452 partner limits assumed): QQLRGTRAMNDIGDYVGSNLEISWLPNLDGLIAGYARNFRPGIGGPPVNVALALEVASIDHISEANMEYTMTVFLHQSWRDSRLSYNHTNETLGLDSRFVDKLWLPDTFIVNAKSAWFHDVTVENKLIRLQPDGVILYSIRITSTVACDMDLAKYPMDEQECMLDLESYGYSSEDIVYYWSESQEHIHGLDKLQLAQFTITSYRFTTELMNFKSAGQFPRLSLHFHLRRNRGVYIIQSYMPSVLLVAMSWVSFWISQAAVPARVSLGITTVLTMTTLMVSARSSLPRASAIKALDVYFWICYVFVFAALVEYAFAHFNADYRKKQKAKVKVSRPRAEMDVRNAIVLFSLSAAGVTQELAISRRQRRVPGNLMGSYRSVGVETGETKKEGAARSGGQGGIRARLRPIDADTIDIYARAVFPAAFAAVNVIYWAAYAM
Method: as §1

5XFAD and wild type mice [1] = assay: Open field test; assay type: in vivo; details: 9-month old 5XFAD and wild type mice, 20 mg/kg oral gavage, 45 minutes post dosing; FIG. 2
Method: 9-month old 5XFAD transgenic mice (expressing human APP and PSEN1 transgenes with 5 AD-linked mutations) and wild type litermates (C57/B16) were dosed as at 20 mg/kg via oral gavage. The total distance travelled was recorded in an open field chamber 45 minutes post dosing.

5XFAD and wild type mice [2] = assay: Forced swim test; assay type: in vivo; details: 9-month old 5XFAD and wild type mice, 20 mg/kg oral gavage, 45 minutes post dosing; FIG. 3
Method: 9-month old 5XFAD transgenic mice (expressing human APP and PSEN1 transgenes with 5 AD-linked mutations) and wild type litermates (C57/B16) were dosed as at 20 mg/kg via oral gavage. The cognitive and mood behavioral tests were performed 45 minutes post dosing.
The forced swim test is a test for depression-like behavior in rodents. The assay involves observing a mouse stay afloat in a tank of water and monitoring how much time it spends immobile.

[3] = 293T cells transiently expressing α1β2γ2 GABAA receptors, FLIPR, PAM activity, read-out: EC50 in α1β2γ2/293T
[4] = 293T cells transiently expressing α1β2δ GABAA receptors, FLIPR, PAM activity, read-out: EC50 in α1β2δ/293T

Question: Which results are given for `C[C@@]1(O)CC[C@H]2[C@H](CC[C@@H]3[C@@H]2CC(F)(F)[C@]2(C)[C@@H](C(=O)Cn4cc(F)cn4)CC[C@@H]32)C1` [Example 7, 1-((3R,5R,8R,9R,10S,13S,14S,17S)-12,12-difluoro-3-hydroxy-3,13-dimethylhexadecahydro-1H-cyclopenta[a]phenanthren-17-yl)-2-(4-fluoro-1H-pyrazol-1-yl)ethan-1-one]?
Answer: EC50 (α1β2γ2 GABAA receptors; [3]): 740 nM; EC50 (α1β2δ GABAA receptors; [4]): 390 nM

Question: What does the source list for `C[C@@]1(O)CC[C@H]2[C@H](CC[C@@H]3[C@@H]2CC(F)(F)[C@]2(C)[C@@H](C#N)CC[C@@H]32)C1` [Example 4, (3R,5R,8R,9R,10S,13S,14S,17S)-12,12-difluoro-3-hydroxy-3,13-dimethylhexadecahydro-1H-cyclopenta[a]phenanthrene-17-carbonitrile]?
Answer: EC50 (α1β2γ2 GABAA receptors; [3]): 2950 nM; EC50 (α1β2δ GABAA receptors; [4]): 710 nM

Question: What does the source list for `C=C1C[C@H]2[C@@H](CC[C@@H]3C[C@](C)(O)CC[C@@H]32)[C@@H]2CC[C@H](C(C)=O)[C@@]12C` [Example 2, 1-((3R,5R,8R,9R,10S,13S,14S,17S)-3-hydroxy-3,13-dimethyl-12-methylenehexadecahydro-1H-cyclopenta[a]phenanthren-17-yl)ethan-1-one]?
Answer: EC50 (α1β2γ2 GABAA receptors; [3]): 280 nM; EC50 (α1β2δ GABAA receptors; [4]): 98 nM

Question: What does the source list for `C=C1C[C@H]2[C@@H](CC[C@@H]3C[C@](C)(O)CC[C@@H]32)[C@@H]2CC[C@H](C#N)[C@@]12C` [Example 1, (3R,5R,8R,9R,10S,13S,14S,17S)-3-hydroxy-3,13-dimethyl-12-methylenehexadecahydro-1H-cyclopenta[a]phenanthrene-17-carbonitrile]?
Answer: EC50 (α1β2γ2 GABAA receptors): 270 nM; EC50 (α1β2δ GABAA receptors): 81 nM

Question: Which EC50 (α1β2γ2 GABAA receptors; [3]) does the source give for `CC(=O)[C@H]1CC[C@H]2[C@@H]3CC[C@@H]4C[C@](C)(O)CC[C@@H]4[C@H]3CC(F)(F)[C@]12C` [Example 5, 1-((3R,5R,8R,9R,10S,13S,14S,17S)-12,12-difluoro-3-hydroxy-3,13-dimethylhexadecahydro-1H-cyclopenta[a]phenanthren-17-yl)ethan-1-one] here?
Answer: 390 nM

Question: And the EC50 (α1β2δ GABAA receptors; [4])?
Answer: 190 nM

Question: With `C[C@@]1(O)CC[C@H]2[C@H](CC[C@@H]3[C@@H]2CC(F)(F)[C@]2(C)[C@@H](C(=O)Cn4cc(C#N)cn4)CC[C@@H]32)C1` [Example 6, 1-(2-((3R,5R,8R,9R,10S,13S,14S,17S)-12,12-difluoro-3-hydroxy-3,13-dimethylhexadecahydro-1H-cyclopenta[a]phenanthren-17-yl)-2-oxoethyl)-1H-pyrazole-4-carbonitrile] as the compound, how does the EC50 (α1β2γ2 GABAA receptors; [3]) read?
Answer: 470 nM

Question: What about the EC50 (α1β2δ GABAA receptors; [4]) of the same compound?
Answer: 120 nM

Question: `C[C@@]1(O)CC[C@H]2[C@H](CC[C@@H]3[C@@H]2CC(F)(F)[C@]2(C)[C@@H](C(=O)Cn4ccc(C#N)n4)CC[C@@H]32)C1` [Example 8, 1-(2-((3R,5R,8R,9R,10S,13S,14S,17S)-12,12-difluoro-3-hydroxy-3,13-dimethylhexadecahydro-1H-cyclopenta[a]phenanthren-17-yl)-2-oxoethyl)-1H-pyrazole-3-carbonitrile] was tested. Which “locomotor functions (total distance travelled in open field chamber)” value (5XFAD and wild type mice [1]) did it give?
Answer: no interference of the locomotor functions

Question: What about the EC50 (α1β2γ2 GABAA receptors; [3]) of the same compound?
Answer: 630 nM

Question: And the “efficacy in forced swim test (time immobile, depression-like behavior)” value (5XFAD and wild type mice [2])?
Answer: genotype-specific efficacy

Question: What about the EC50 (α1β2δ GABAA receptors; [4]) of the same compound?
Answer: 250 nM
